Data on 2 molecules can be found in patent US11986532B2 (Arvinas Operations, Inc., priority 2021, dated 2024).

The target of the assay is T1, BCL6 (Homo sapiens, UniProt P41182).
T1 construct: endogenous in cells; host or cells: T47D breast cancer epithelial cells
Kind of assay: Immunofluorescence protocol for high content imaging of BCL6 (degradation) in T47D cells, 3 days compound treatment. The format is cell-based. The following applies: for Dmax: T47D, read-out: Mean Dmax (%)** category; for DC50: read-out: Mean DC50 (nM)* category. The gist of the method: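 T47D cells in RPMI1640-10% FBS were treated with an 11-point 3-fold dilution series (final top 0.1 or 1 μM) for 3 days at 37° C. After PFA fixation and Triton permeabilization, cells were immunostained with rabbit anti-BCL6 (1:300, overnight 4° C), Alexa-488 secondary, CellMask-647 and Hoechst, then imaged at 10×, 4 fields/well.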

For orientation: Dmax means the largest share of the target that was removed. By DC50 is commonly meant the concentration giving 50% degradation.

The structures appear in SMILES notation.

As for `CNC(=O)COc1cc2cc(Nc3nc(N4CCC(O[C@H]5C[C@H](N6CC[C@@H](c7ccc8c(c7F)CN(C7CCC(=O)NC7=O)C8=O)C(C)(C)C6)C5)CC4)ncc3Cl)ccc2n(C(C)C)c1=O` (stereo partly drawn) [Compound 430, 2-({6-[(5-chloro-2-{4-[(1r,3r)-3-[(4R)-4-[2-(2,6-dioxopiperidin-3-yl)-4-fluoro-1-oxo-2,3-dihydro-1H-isoindol-5-yl]-3,3-dimethylpiperidin-1-yl]cyclobutoxy]piperidin-1-yl}pyrimidin-4-yl)amino]-2-oxo-1-(propan-2-yl)-1,2-dihydroquinolin-3-yl}oxy)-N-methylacetamide], the Dmax was at least 70% and the DC50 was under 10 nM.

For `CNC(=O)COc1cc2cc(Nc3nc(N4CCC(O[C@H]5C[C@H](N6CC[C@H](c7ccc8c(c7F)CN(C7CCC(=O)NC7=O)C8=O)C(C)(C)C6)C5)CC4)ncc3Cl)ccc2n(C(C)C)c1=O` (stereo partly drawn) [Compound 431, 2-({6-[(5-chloro-2-{4-[(1r,3r)-3-[(4S)-4-[2-(2,6-dioxopiperidin-3-yl)-4-fluoro-1-oxo-2,3-dihydro-1H-isoindol-5-yl]-3,3-dimethylpiperidin-1-yl]cyclobutoxy]piperidin-1-yl}pyrimidin-4-yl)amino]-2-oxo-1-(propan-2-yl)-1,2-dihydroquinolin-3-yl}oxy)-N-methylacetamide], the Dmax was at least 70% and the DC50 is under 10 nM.
